From BindingDB's records for doi:10.1007/pl00005326 (Schering-Plough Research Institute, 1999)

Target: T1, Adenosine receptor A3 (Homo sapiens, UniProt P0DMS8)
T1 sequence (P0DMS8 whole entry): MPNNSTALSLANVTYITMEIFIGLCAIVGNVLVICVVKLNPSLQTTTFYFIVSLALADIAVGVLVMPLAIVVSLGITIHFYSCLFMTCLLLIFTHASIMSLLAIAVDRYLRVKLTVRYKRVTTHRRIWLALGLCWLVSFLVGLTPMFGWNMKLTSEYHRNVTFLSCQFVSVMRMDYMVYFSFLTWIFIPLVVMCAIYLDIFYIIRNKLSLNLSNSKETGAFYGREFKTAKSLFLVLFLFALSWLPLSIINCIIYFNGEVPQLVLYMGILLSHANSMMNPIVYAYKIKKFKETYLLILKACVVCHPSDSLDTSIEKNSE

Ki [µM]	SMILES
> 10	Nc1nc(NCCc2ccc(O)cc2)nc2nc(-c3ccco3)nn12
> 10	Nc1nc2c(cnn2CCc2ccccc2)c2nc(-c3ccco3)nn12

SMILES	Ki [µM]
Nc1nc2ccc(Cl)cc2c2nc(-c3ccco3)nn12	0.095
